Results taken from ChEMBL document CHEMBL4321806 (J Med Chem, 2019).
The source made the active and inactive calls. The calls are words filed in the database; no cut-off is given here.

Columns and labels:
HEK293 [1] = experiment: Cytotoxicity against human HEK293 cells assessed as reduction in cell viability after 5 days by MTS/PMS assay; type: cell-based; details: HEK293, 120 h
2008 = experiment: Antiproliferative activity against human 2008 cells assessed as reduction in cell viability after 5 days by MTS/PMS assay; type: functional, cell-based; details: Homo sapiens, 2008, 120 h
[2] = Antiproliferative activity against human LCC6 cells assessed as reduction in cell viability after 5 days by MTS/PMS assay; type: functional, cell-based; details: LCC-6, 120 h
HFF-1 = experiment: Cytotoxicity against human HFF1 cells assessed as reduction in cell viability; type: cell-based
[3] = Cytotoxicity against mouse L929 cells assessed as reduction in cell viability
NIH3T3 = experiment: Cytotoxicity against mouse 3T3 cells assessed as reduction in cell viability; type: cell-based
[4] = target: T1, Broad substrate specificity ATP-binding cassette transporter ABCG2 (Homo sapiens, UniProt Q9UNQ0); experiment: Inhibition of BCRP (unknown origin)
T1 sequence (Q9UNQ0 whole entry): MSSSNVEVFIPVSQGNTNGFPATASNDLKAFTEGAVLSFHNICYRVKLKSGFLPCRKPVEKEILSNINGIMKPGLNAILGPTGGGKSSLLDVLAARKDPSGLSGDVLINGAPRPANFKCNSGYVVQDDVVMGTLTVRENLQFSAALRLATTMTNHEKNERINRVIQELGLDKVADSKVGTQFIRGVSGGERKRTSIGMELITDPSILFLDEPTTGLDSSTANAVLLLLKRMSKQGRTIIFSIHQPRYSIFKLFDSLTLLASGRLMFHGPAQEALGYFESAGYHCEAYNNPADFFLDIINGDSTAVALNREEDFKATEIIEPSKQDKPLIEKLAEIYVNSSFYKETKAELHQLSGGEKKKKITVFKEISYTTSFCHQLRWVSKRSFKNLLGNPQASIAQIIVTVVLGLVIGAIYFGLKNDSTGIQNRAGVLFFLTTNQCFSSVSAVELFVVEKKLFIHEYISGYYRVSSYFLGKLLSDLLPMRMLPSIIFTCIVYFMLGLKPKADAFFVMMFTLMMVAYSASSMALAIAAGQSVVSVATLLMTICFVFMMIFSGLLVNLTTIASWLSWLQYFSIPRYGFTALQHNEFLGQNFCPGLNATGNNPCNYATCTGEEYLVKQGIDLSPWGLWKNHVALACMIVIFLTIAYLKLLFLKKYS

[5] = target: T1, Broad substrate specificity ATP-binding cassette transporter ABCG2; experiment: Inhibition of vanadate sensitive BCRP ATPase activity in human S1-M1-80 cell membranes preincubated for 30 mins followed by ATP addition and measured after 1 hr by colorimetric assay
Homo sapiens = organism: Homo sapiens; experiment: Effect on BCRP protein expression in human HEK293/R2 cells at 1 to 3 uM after 4 days by flow cytometric analysis; type: functional, cell-based
HEK293 [6] = experiment: Effect on intracellular topotecan level in human HEK293 cells at 5 uM up to 15 mins by flow cytometric analysis; type: functional, cell-based
[7] = target: T1, Broad substrate specificity ATP-binding cassette transporter ABCG2; experiment: Inhibition of BCRP (unknown origin) expressed in human HEK293/R2 cells assessed as increase in intracellular topotecan accumulation by measuring fold change at 1 uM after 120 mins in presence of topotecan by flow cytometry analysis relative to control; details: 2 h

Compound | IC50 (HFF-1) [µM] | IC50 [3] [µM] | IC50 (NIH3T3) [µM] | other results
O=C1c2c(O)ccc(O)c2C(=O)c2c(NCCNCCO)ccc(NCCNCCO)c21 [MITOXANTRONE] | – | – | – | IC50 (HEK293 [1]): 0.0117 µM; IC50 2008: 0.0078 µM; IC50 [2]: 0.0374 µM
COC(=O)c1cccc(COc2c(-c3ccc(OCCOCCOCCn4cc(-c5cccc(-c6cn(CCOCCOCCOc7ccc(-c8oc9ccccc9c(=O)c8OCc8cccc(C(=O)OC)c8)cc7)nn6)c5)nn4)cc3)oc3ccccc3c2=O)c1 | > 100 | > 100 | > 100 | –
COC(=O)c1cccc(COc2c(-c3ccc(OCCOCCOCCn4cc(-c5ccc(-c6cn(CCOCCOCCOc7ccc(-c8oc9ccccc9c(=O)c8OCc8cccc(C(=O)OC)c8)cc7)nn6)cc5)nn4)cc3)oc3ccccc3c2=O)c1 | > 100 | > 100 | > 100 | –
COc1cc2c(cc1OC)CN(CCc1ccc(NC(=O)c3cc(OC)c(OC)cc3NC(=O)c3cnc4ccccc4c3)cc1)CC2 | – | – | – | EC50 [4]: 0.1 µM
COC(=O)c1cccc(COc2c(-c3ccc(OCCOCCOCCn4cc(CN(Cc5ccccc5)Cc5cn(CCOCCOCCOc6ccc(-c7oc8ccccc8c(=O)c7OCc7cccc(C(=O)OC)c7)cc6)nn5)nn4)cc3)oc3ccccc3c2=O)c1 | > 100 | > 100 | > 100 | –
COC(=O)c1cccc(COc2c(-c3ccc(OCCOCCn4cc(CN(Cc5cn(CCOCCOc6ccc(-c7oc8ccccc8c(=O)c7OCc7cccc(C(=O)OC)c7)cc6)nn5)c5ccccc5)nn4)cc3)oc3ccccc3c2=O)c1 | > 100 | > 100 | > 100 | –
COc1ccc2c3c([nH]c2c1)[C@H](C=C(C)C)N1C(=O)[C@@H]2CCCN2C(=O)[C@@H]1C3 [FUMITREMORGIN] | – | – | – | EC50 [4]: 1 to 5 µM
COC(=O)c1cccc(COc2c(-c3ccc(OCCOCCn4cc(-c5cccc(-c6cn(CCOCCOc7ccc(-c8oc9ccccc9c(=O)c8OCc8cccc(C(=O)OC)c8)cc7)nn6)c5)nn4)cc3)oc3ccccc3c2=O)c1 | > 100 | > 100 | > 100 | inhibition (INH) [5]: Dose-dependent effect; Activity (Homo sapiens): inactive; Activity (HEK293 [6]): inactive; FC [7]: 11 to 12
COC(=O)c1cccc(COc2c(-c3ccc(OCCOCCOCCn4cc(CN(Cc5cn(CCOCCOCCOc6ccc(-c7oc8ccccc8c(=O)c7OCc7cccc(C(=O)OC)c7)cc6)nn5)c5ccccc5)nn4)cc3)oc3ccccc3c2=O)c1 | > 100 | > 100 | > 100 | –
COC(=O)c1cccc(COc2c(-c3ccc(OCCOCCn4cc(COCc5cn(CCOCCOc6ccc(-c7oc8ccccc8c(=O)c7OCc7cccc(C(=O)OC)c7)cc6)nn5)nn4)cc3)oc3ccccc3c2=O)c1 | > 100 | > 100 | > 100 | –
